Measured values reported in ChEMBL document CHEMBL1201862, “PubChem BioAssay data set” (2004).
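Values below derive from 48-hour exposures of cells grown in 96-well plates, with endpoints linearly interpolated between the two concentrations bracketing the appropriate inhibition level. The concentration for 50% growth inhibition is given as GI50.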 Active and inactive are the calls of the source. Rule as the data show it: active = GI50 up to about 1.1 µM and inactive = higher.

Tests used:
Assay in all cases: NCI-60 cell line screen, 48 h
LOX IMVI = test system: LOX IMVI
NCI-H460 = test system: NCI-H460
Malme-3M = test system: Malme-3M
A498 = test system: A498
RXF 631 = test system: RXF 631
EKVX = test system: EKVX
SNB-19 = test system: SNB-19
SF-539 = test system: SF-539
DLD-1 = test system: DLD-1
A549 = test system: A549
K562 = test system: K562
SNB-75 = test system: SNB-75
SF-268 = test system: SF-268
SW-620 = test system: SW-620
HCC 2998 = test system: HCC 2998
UO-31 = test system: UO-31
HL-60 = test system: HL-60
HT-29 = test system: HT-29
UACC-257 = test system: UACC-257
786-0 = test system: 786-0
HCT-15 = test system: HCT-15
SNB-78 = test system: SNB-78
OVCAR-3 = test system: OVCAR-3
KM12 = test system: KM12
RXF 393 = test system: RXF 393
MOLT-4 = test system: MOLT-4
DMS-273 = test system: DMS-273
CAKI-1 = test system: CAKI-1
XF498 = test system: XF498
U-251 = test system: U-251
CCRF-CEM = test system: CCRF-CEM
IGROV-1 = test system: IGROV-1
M19-MEL = test system: M19-MEL
SR = test system: SR
HOP-92 = test system: HOP-92
UACC-62 = test system: UACC-62
OVCAR-8 = test system: OVCAR-8
SF-295 = test system: SF-295
ACHN = test system: ACHN
TK-10 = test system: TK-10
SK-OV-3 = test system: SK-OV-3
OVCAR-5 = test system: OVCAR-5
M14 = test system: M14
COLO 205 = test system: COLO 205
HOP-62 = test system: HOP-62
NCI-H522 = test system: NCI-H522
NCI-H23 = test system: NCI-H23
RPMI-8226 = test system: RPMI-8226
SK-MEL-2 = test system: SK-MEL-2
OVCAR-4 = test system: OVCAR-4
SK-MEL-5 = test system: SK-MEL-5
SK-MEL-28 = test system: SK-MEL-28
KM-20L2 = test system: KM-20L2
NCI-H226 = test system: NCI-H226
LXFL 529 = test system: LXFL 529
DMS-114 = test system: DMS-114
SN12C = test system: SN12C

For `COC1=CC(=O)C2C(C1=O)[C@@H]1c3ccccc3C[C@H]21` (stereo not given in full), the GI50 (LOX IMVI) was > 100 µM (inactive), the GI50 (NCI-H460) was > 100 µM (inactive) and the GI50 (Malme-3M) was > 100 µM (inactive). For the same compound, the GI50 (A498) was > 100 µM (inactive), the GI50 (RXF 631) was > 100 µM (inactive) and the GI50 (EKVX) was > 100 µM (inactive). For the same compound, the GI50 (SNB-19) was > 100 µM (inactive), the GI50 (SF-539) was > 100 µM (inactive) and the GI50 (DLD-1) was > 100 µM (inactive). The GI50 (A549) was > 100 µM (inactive), the GI50 (K562) was > 100 µM (inactive) and the GI50 (SNB-75) was 89.9 µM (inactive). For the same compound, the GI50 (SF-268) was > 100 µM (inactive), the GI50 (SW-620) was > 100 µM (inactive) and the GI50 (HCC 2998) was > 100 µM (inactive). For the same compound, the GI50 (UO-31) was > 100 µM (inactive), the GI50 (HL-60) was > 100 µM (inactive) and the GI50 (HT-29) was > 100 µM (inactive). For the same compound, the GI50 (UACC-257) was > 100 µM (inactive), the GI50 (786-0) was > 100 µM (inactive) and the GI50 (HCT-15) was > 100 µM. The GI50 (SNB-78) was > 100 µM (inactive), the GI50 (OVCAR-3) was > 100 µM (inactive) and the GI50 (KM12) was > 100 µM (inactive). The GI50 (RXF 393) was > 100 µM (inactive), the GI50 (MOLT-4) was > 100 µM (inactive) and the GI50 (DMS-273) was > 100 µM (inactive). The GI50 (CAKI-1) was > 100 µM (inactive), the GI50 (XF498) was > 100 µM (inactive) and the GI50 (U-251) was > 100 µM (inactive). For the same compound, the GI50 (CCRF-CEM) was > 100 µM (inactive), the GI50 (IGROV-1) was > 100 µM (inactive) and the GI50 (M19-MEL) was > 100 µM (inactive). The GI50 (SR) was > 100 µM (inactive), the GI50 (HOP-92) was > 100 µM (inactive) and the GI50 (UACC-62) was > 100 µM (inactive). For the same compound, the GI50 (OVCAR-8) was 85.3 µM (inactive), the GI50 (SF-295) was > 100 µM (inactive) and the GI50 (ACHN) was > 100 µM (inactive). The GI50 (TK-10) was > 100 µM (inactive), the GI50 (SK-OV-3) was > 100 µM (inactive) and the GI50 (OVCAR-5) was > 100 µM (inactive). For the same compound, the GI50 (M14) was > 100 µM (inactive), the GI50 (COLO 205) was > 100 µM (inactive) and the GI50 (HOP-62) was > 100 µM (inactive). The GI50 (NCI-H522) was > 100 µM (inactive), the GI50 (NCI-H23) was > 100 µM (inactive) and the GI50 (RPMI-8226) was > 100 µM (inactive). The GI50 (SK-MEL-2) was > 100 µM (inactive), the GI50 (OVCAR-4) was > 100 µM (inactive) and the GI50 (SK-MEL-5) was > 100 µM (inactive). The GI50 (SK-MEL-28) was > 100 µM (inactive).
In the case of `O=C1CCC2(c3ccccc3)Nc3ccccc3N12` (stereo not given), the GI50 (LOX IMVI) is reported as > 100 µM (inactive), the GI50 (NCI-H460) is reported as > 100 µM (inactive) and the GI50 (Malme-3M) is reported as > 100 µM (inactive). The GI50 (A498) was > 100 µM (inactive), the GI50 (KM-20L2) was > 100 µM (inactive) and the GI50 (RXF 631) was > 100 µM (inactive). For the same compound, the GI50 (EKVX) was > 100 µM (inactive), the GI50 (SF-539) was > 100 µM (inactive) and the GI50 (DLD-1) was > 100 µM (inactive). For the same compound, the GI50 (A549) was > 100 µM (inactive), the GI50 (K562) was > 100 µM (inactive) and the GI50 (SNB-75) was > 100 µM (inactive). For the same compound, the GI50 (NCI-H226) was > 100 µM (inactive), the GI50 (SF-268) was > 100 µM (inactive) and the GI50 (SW-620) was > 100 µM (inactive). The GI50 (HCC 2998) was > 100 µM (inactive), the GI50 (UO-31) was > 100 µM (inactive) and the GI50 (HL-60) was > 100 µM (inactive). For the same compound, the GI50 (HT-29) was > 100 µM (inactive), the GI50 (UACC-257) was > 100 µM (inactive) and the GI50 (786-0) was > 100 µM (inactive). The GI50 (HCT-15) was > 100 µM, the GI50 (SNB-78) was > 100 µM (inactive) and the GI50 (OVCAR-3) was > 100 µM (inactive). For the same compound, the GI50 (LXFL 529) was > 100 µM (inactive), the GI50 (KM12) was > 100 µM (inactive) and the GI50 (RXF 393) was > 100 µM (inactive). For the same compound, the GI50 (MOLT-4) was > 100 µM (inactive), the GI50 (CAKI-1) was > 100 µM (inactive) and the GI50 (XF498) was > 100 µM (inactive). The GI50 (DMS-114) was > 100 µM (inactive), the GI50 (U-251) was > 100 µM (inactive) and the GI50 (CCRF-CEM) was > 100 µM (inactive). For the same compound, the GI50 (IGROV-1) was > 100 µM (inactive), the GI50 (M19-MEL) was > 100 µM (inactive) and the GI50 (HOP-92) was > 100 µM (inactive). The GI50 (SN12C) was > 100 µM (inactive), the GI50 (UACC-62) was > 100 µM (inactive) and the GI50 (OVCAR-8) was > 100 µM (inactive). For the same compound, the GI50 (SF-295) was > 100 µM (inactive), the GI50 (ACHN) was > 100 µM (inactive) and the GI50 (TK-10) was > 100 µM (inactive). The GI50 (OVCAR-5) was > 100 µM (inactive), the GI50 (M14) was > 100 µM (inactive) and the GI50 (COLO 205) was > 100 µM (inactive). For the same compound, the GI50 (HOP-62) was > 100 µM (inactive), the GI50 (NCI-H522) was > 100 µM (inactive) and the GI50 (NCI-H23) was > 100 µM (inactive). The GI50 (RPMI-8226) was > 100 µM (inactive), the GI50 (SK-MEL-2) was > 100 µM (inactive) and the GI50 (OVCAR-4) was > 100 µM (inactive). For the same compound, the GI50 (SK-MEL-5) was > 100 µM (inactive) and the GI50 (SK-MEL-28) was > 100 µM (inactive).
